Among the data in patent publication US20030207843A1, “Treatment of drug-resistant human immunodeficiency virus infection” (priority 1999, published 2003) are EC50, Fold resistance and Fold resist. values, retold here.

One may read the EC50 as the concentration that produces a half-maximal response.

Format in all cases: cell-based
The subject of test [1] is HIV-1LAI (wild type, control). Description: p24 reduction assay in MT-2 cells, wild type virus. Particulars: Table 6; baseline virus HIV-1LAI passage 0; read-out: EC50. As for the experimental part: (§1) Cells. MT-2 cells (AIDS Research and Reference Reagent Program, National Institute of Allergy and Infectious Diseases, National Institutes of Health) were maintained in RPMI 1640 supplemented with 10% fetal bovine serum (FBS; JRH Biosciences, Lenexa, Kans.), 10 mM HEPES buffer, 50 IU/ml penicillin and 50 μg/ml streptomycin.
Viruses. Stock virus was prepared by electroporating (BIO-RAD Gene Pulser®, Hercules, Calif.) MT-2 cells (1.3×10^7 cells) with 5-10 μg of plasmid DNA encoding a proviral clone of HIV-1LAI (see Nguyen, et. al., Antimicrob. Agents Chemother. 38:2409-2414, and Peden, et. al., Virology 185: 661-672.). At peak cytopathic effect (generally 5-7 days post-transfection), culture supernatants were harvested and stored at −80° C. Viral infectivity titers were determined in threefold endpoint dilution assays conducted in MT-2 cells (six wells per dilution). The 50% tissue culture infective dose (TCID50) was calculated using the Reed and Muench equation (see Reed, et. al., Am. J. Hyg. 27:493-496).
Antiviral Susceptibility Assays. The antiviral activity of each compound […], followed by incubation in the presence of three-fold serial drug dilutions (3 wells per dilution) (see Mellors, et. al., Antimicrob. Agents Chemother. 39:1087-1092). Five or seven days after infection, culture supernatants were harvested, lysed with 0.5% triton-X 100 and assayed for p24 antigen concentration using a commercial ELISA assay (DuPont, NEN Products, Wilmington, Del.). The antiviral activity of the compounds is expressed as the IC50, which is the concentration required to inhibit 50% of p24 antigen production. The fold-resistance of a test virus is calculated by dividing the IC50 of the test virus by the IC50 of the HIV-1LAI control virus.
Cultures of MT-2 cells infected with either wild type (xxLAI) or with the drug-resistant strains of HIV-1 listed above were treated with lipid analogs of PFA (B-PFA, MB-PFA, or EB-PFA). The μM concentration required to produce 50% inhibition of replication of the drug-resistant strain of HIV (EC50) was determined as shown in Table 1. Drug effects were measured by assaying p24 (a viral protein) in the culture medium.

The test system of the next test is HIV-1LAI S117T/L214F. Description: p24 reduction assay in MT-2 cells, S117T/L214F. Particulars: Example 6; recombinant virus encoding S117T plus L214F. As for the experimental part: as §1
(§2) Antiviral Susceptibility Assays. The antiviral activity of each compound was determined by inoculating MT-2 cells with HIV-1LAI at a multiplicity of infection (MOI) of 0.01 TCID50/cell, followed by incubation in the presence of three-fold serial drug dilutions (3 wells per dilution) (see Mellors, et. al., Antimicrob. Agents Chemother. 39:1087-1092). Five or seven days after infection, culture supernatants were harvested, lysed with 0.5% triton-X 100 and assayed for p24 antigen concentration using a commercial ELISA assay (DuPont, NEN Products, Wilmington, Del.). The antiviral activity of the compounds is expressed as the IC50, which is the concentration required to inhibit 50% of p24 antigen production. The fold-resistance of a test virus is calculated by dividing the IC50 of the test virus by the IC50 of the HIV-1LAI control virus.
(§3) Generation of Mutant Recombinant HIV-1. HIV-1 containing the desired mutations were generated by oligonucleotide directed mutagenesis (Altered Sites II, Promega) as previously described (Mellors, et. al., Molecular Pharm. 41:446-451). After mutagenesis, mutant RT was subcloned into the pxxHIV-1LAI cloning vector using the silent XmaI and XbaI restriction sites located at the 5′ and 3′ ends of RT. Clones were DNA sequenced to verify the presence of the desired mutation(s) and electroporated into MT-2 cells as described above to generate infectious mutant recombinant HIV-1.
Mutant RT was generated via oligonucleotide-directed mutagenesis and ligated into the pXXHIV-1LAI cloning vector. […]
(§4) Recombinant viruses containing the mutations selected by invention compounds were also evaluated for their susceptibility to AZT, as shown in Table 8.

The test system of another test is HIV-1LAI S117T. Description: p24 reduction assay in MT-2 cells, S117T. Conditions: Example 6, recombinant virus encoding S117T. The procedure:
as §1, §2, §3
Mutant RT was generated via oligonucleotide-directed mutagenesis and ligated into the pXXHIV-1LAI cloning vector. Cloning was facilitated by the presence of two silent restriction sites at the 5′ and 3′ ends (Xma1 and Xba1, respectively) of pXXHIV-1LAI RT. Infectious mutant recombinant HIV-1 was generated by electroporating MT-2 cells with mutated pXXHIV-1LAI clones. The presence of the desired mutations was verified by DNA sequencing.
DNA sequencing identified two mutations in RT: S117T and L214F.
as §4

Test [2] deals with HIV-1LAI selected with DB-PFA, passage 18 (S117T, L214F). The experiment in a line: Susceptibility of virus selected in vitro with DB-PFA. As for the experimental part: as §2
Selection of Resistant Viruses. […] Viral cytopathic effects (CPE) were monitored daily. […] The passaged virus was monitored regularly for a reduction in susceptibility to the compounds by determining the EC50 relative to unpassaged HIV-1LAI (Mellors, et. al., Antimicrob. Agents Chemother. 39:1087-1092). […]

Take “1-O-octadecyl-propanediol-3-PFA [DB-PFA]”: the EC50 in test [1] worked out at 0.83 µM; in the test on HIV-1LAI S117T (read-out: EC50), 9 µM; in test [2] (Table 6, passage 18 (S117T, L214F)), 8.97 µM. Also, the Fold resistance in the test on HIV-1LAI S117T/L214F is given as 9.7 fold; with HIV-1LAI S117T it was 10.0 fold. The substance also displayed a Fold resist. in test [2] (Table 6, passage 18, relative to passage 0) of 10.8.
